# In US12617783B2, “Heterocyclic GLP-1R agonists” (BIOMEA FUSION, INC., priority 2024, dated 2026):
# Target: T1, human GLP-1R (Homo sapiens, UniProt P43220)
# T1 construct: host or cells: HEK293
# Assay: GLP-1R cAMP assay (Example B1a, HTRF, 30 min at room temperature)
# Assay type: cell-based
# Details: cAMP accumulation in HEK293 expressing human GLP-1R, no BETP, 30 min room temperature (Method B1a, compounds ID 1-609), Table 1; read-out: EC50
# Summary of the method: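 Competitive HTRF read-out of cAMP after 30 min room-temperature stimulation, BETP absent, of human GLP-1R-HEK293 cells (1,000/well) in HEPES buffer with 500 μM IBMX and 0.1% BSA. Activation normalised to GLP-1(7-37) positive control. EC50 from 4-parameter non-linear regression.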
# T1 sequence (P43220 24-463): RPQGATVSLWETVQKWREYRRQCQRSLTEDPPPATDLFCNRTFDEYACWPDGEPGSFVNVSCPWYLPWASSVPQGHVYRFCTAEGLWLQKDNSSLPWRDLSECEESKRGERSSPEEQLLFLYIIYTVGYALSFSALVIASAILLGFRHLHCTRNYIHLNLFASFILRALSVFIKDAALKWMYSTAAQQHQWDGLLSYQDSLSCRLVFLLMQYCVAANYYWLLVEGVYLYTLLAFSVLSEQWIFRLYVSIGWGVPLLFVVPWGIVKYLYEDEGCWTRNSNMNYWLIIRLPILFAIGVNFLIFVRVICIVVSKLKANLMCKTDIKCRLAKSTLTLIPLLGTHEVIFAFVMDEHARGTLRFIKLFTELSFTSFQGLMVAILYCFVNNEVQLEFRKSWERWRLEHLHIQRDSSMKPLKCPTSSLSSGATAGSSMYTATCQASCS
row,Structure (SMILES),EC50 [nM]
1,"Cc1cc(-n2nc3c(c2-n2ccn(-c4ccc5c(cnn5C)c4F)c2=O)[C@@H]2CC[C@H](C3)N2C(=O)c2cc3cc([C@H]4CCOC(C)(C)C4)ccc3n2[C@@]2(C#N)C[C@@H]2C)cc(C)c1F [Compound 137, trans-(1S,2S)-1-[5-[(4S)-2,2-dimethyltetrahydropyran-4-yl]-2-[(1S,8R)-4-(4-fluoro-3,5-dimethyl-phenyl)-3-[3-(4-fluoro-1-methyl-indazol-5-yl)-2-oxo-imidazol-1-yl]-4,5,11-triazatricyclo[6.2.1.02,6]undeca-2,5-diene-11-carbonyl]indol-1-yl]-2-methyl-cyclopropanecarbonitrile]",> 10000
2,"Cc1cc(-n2nc3c(c2-n2ccn(-c4ccc5c(cnn5C)c4F)c2=O)[C@H]2CC[C@@H]([C@H]3F)N2C(=O)c2cc3cc([C@H]4CCOC(C)(C)C4)ccc3n2[C@@]2(c3noc(=O)[nH]3)C[C@@H]2C)cc(C)c1F [Compound 514, 3-[(1S,2S)-1-[5-[(4S)-2,2-dimethyltetrahydropyran-4-yl]-2-[(1R,7R,8S)-7-fluoro-4-(4-fluoro-3,5-dimethyl-phenyl)-3-[3-(4-fluoro-1-methyl-indazol-5-yl)-2-oxo-imidazol-1-yl]-4,5,11-triazatricyclo[6.2.1.02,6]undeca-2,5-diene-11-carbonyl]indol-1-yl]-2-methyl-cyclopropyl]-4H-1,2,4-oxadiazol-5-one]",≥ 10000
3,"Cc1cc(-n2nc3c(c2-n2ccn(-c4ccc5[nH]ncc5c4F)c2=O)CN(C(=O)c2cc4cc([C@H]5CCOC(C)(C)C5)ccc4n2[C@@]2(c4noc(=O)[nH]4)C[C@@H]2C)CCC3)cc(C)c1F [Compound 505, 3-[(1S,2S)-1-[5-[(4S)-2,2-dimethyltetrahydropyran-4-yl]-2-[2-(4-fluoro-3,5-dimethyl-phenyl)-3-[3-(4-fluoro-1H-indazol-5-yl)-2-oxo-imidazol-1-yl]-4,6,7,8-tetrahydropyrazolo[4,3-c]azepine-5-carbonyl]indol-1-yl]-2-methyl-cyclopropyl]-4H-1,2,4-oxadiazol-5-one]",600
4,"Cc1cc(-n2nc3c(c2-n2ccn(-c4ccc5c(cnn5C)c4Cl)c2=O)[C@@H]2COC[C@H](C3)N2C(=O)c2cc3cc(C4CCOC5(CC5)C4)ccc3n2[C@@]2(c3noc(=O)[nH]3)C[C@@H]2C)cc(C)c1F (stereo partly drawn) [Compound 230, 3-[(1S,2S)-1-[2-[(1R,8S)-3-[3-(4-chloro-1-methyl-indazol-5-yl)-2-oxo-imidazol-1-yl]-4-(4-fluoro-3,5-dimethyl-phenyl)-10-oxa-4,5,12-triazatricyclo[6.3.1.02,6]dodeca-2,5-diene-12-carbonyl]-5-(4-oxaspiro[2.5]octan-7-yl)indol-1-yl]-2-methyl-cyclopropyl]-4H-1,2,4-oxadiazol-5-one]",389
5,"Cc1cc(-n2nc3c(c2-n2ccn(-c4ccc5c(cnn5C)c4F)c2=O)CN(C(=O)c2cc4cc([C@H]5CCOC(C)(C)C5)ccc4n2[C@@]2(c4noc(=O)[nH]4)C[C@@H]2C)[C@@H](C)CC3)cc(C)c1F [Compound 601, 3-[(1S,2S)-1-[5-[(4S)-2,2-dimethyltetrahydropyran-4-yl]-2-[(6S)-2-(4-fluoro-3,5-dimethyl-phenyl)-3-[3-(4-fluoro-1-methyl-indazol-5-yl)-2-oxo-imidazol-1-yl]-6-methyl-4,6,7,8-tetrahydropyrazolo[4,3-c]azepine-5-carbonyl]indol-1-yl]-2-methyl-cyclopropyl]-4H-1,2,4-oxadiazol-5-one]",≥ 10000
6,"Cc1cc(-n2nc3c(c2-n2ccn(-c4cc(F)c5c(cnn5C)c4F)c2=O)[C@@H]2CC[C@H](C3)N2C(=O)c2cc3cc([C@H]4CCOC(C)(C)C4)ccc3n2[C@@]2(c3noc(=O)[nH]3)C[C@@H]2C)cc(C)c1F [Compound 235, 3-[(1S,2S)-1-[2-[(1S,8R)-3-[3-(4,7-difluoro-1-methyl-indazol-5-yl)-2-oxo-imidazol-1-yl]-4-(4-fluoro-3,5-dimethyl-phenyl)-4,5,11-triazatricyclo[6.2.1.02,6]undeca-2,5-diene-11-carbonyl]-5-[(4S)-2,2-dimethyltetrahydropyran-4-yl]indol-1-yl]-2-methyl-cyclopropyl]-4H-1,2,4-oxadiazol-5-one]",459
7,"Cc1cc(-n2nc3c(c2-n2ccn(-c4ccc5c(cnn5C)c4F)c2=O)[C@@H]2COC[C@H](C3)N2C(=O)c2cc3cc([C@H]4CCOC5(CC5)C4)ccc3n2[C@@]2(c3noc(=O)[nH]3)C[C@@H]2C)cc(C)c1F [Compound 226, 3-((1S,2S)-1-(2-((4R,8S)-3-(3-(4-fluoro-1-methyl-1H-indazol-5-yl)-2-oxo-2,3-dihydro-1H-imidazol-1-yl)-2-(4-fluoro-3,5-dimethylphenyl)-2,4,5,7,8,9-hexahydro-4,8-epiminooxocino [5,4-c]pyrazole-10-carbonyl)-5-((S)-4-oxaspiro[2.5]octan-7-yl)-1H-indol-1-yl)-2-methylcyclopropyl)-1,2,4-oxadiazol-5 (4H)-one]",435
8,"Cc1cc(-n2nc3c(c2-n2ccn(-c4ccc5c(cnn5C)c4Cl)c2=O)[C@@H]2COC[C@H](C3)N2C(=O)c2cc3cc([C@H]4CCOC(C)(C)C4)ccc3n2[C@@]2(c3noc(=O)[nH]3)C[C@@H]2C)cc(C)c1F [Compound 222, 3-((1S,2S)-1-(2-((4R,8S)-3-(3-(4-chloro-1-methyl-1H-indazol-5-yl)-2-oxo-2,3-dihydro-1H-imidazol-1-yl)-2-(4-fluoro-3,5-dimethylphenyl)-2,4,5,7,8,9-hexahydro-4,8-epiminooxocino [5,4-c]pyrazole-10-carbonyl)-5-((S)-2,2-dimethyltetrahydro-2H-pyran-4-yl)-1H-indol-1-yl)-2-methylcyclopropyl)-1,2,4-oxadiazol-5(4H)-one]",177
9,"Cc1cc(-n2nc3c(c2-n2ccn(-c4ccc5c(cnn5C)c4F)c2=O)[C@H]2CC[C@@H](C3)N2C(=O)c2cc3cc([C@@H]4CCOC5(CC5)C4)ccc3n2[C@]2(c3noc(=O)[nH]3)C[C@@H]2C)cc(C)c1F [Compound 530, 3-[(1R,2S)-1-[2-[(1R,8S)-4-(4-fluoro-3,5-dimethyl-phenyl)-3-[3-(4-fluoro-1-methyl-indazol-5-yl)-2-oxo-imidazol-1-yl]-4,5,11-triazatricyclo[6.2.1.02,6]undeca-2,5-diene-11-carbonyl]-5-[(7R)-4-oxaspiro[2.5]octan-7-yl]indol-1-yl]-2-methyl-cyclopropyl]-4H-1,2,4-oxadiazol-5-one]",≥ 10000
10,"Cc1cc(-n2nc3c(c2-c2nnc(-c4ccc5c(cnn5C)c4F)o2)[C@H](C)N(C(=O)c2cc4cc([C@H]5CCOC(C)(C)C5)ccc4n2[C@@]2(c4noc(=O)[nH]4)C[C@@H]2C)CC3)cc(C)c1F [Compound 5, 3-((1S,2S)-1-(5-((S)-2,2-dimethyltetrahydro-2H-pyran-4-yl)-2-((S)-3-(5-(4-fluoro-1-methyl-1H-indazol-5-yl)-1,3,4-oxadiazol-2-yl)-2-(4-fluoro-3,5-dimethylphenyl)-4-methyl-4,5,6,7-tetrahydro-2H-pyrazolo[4,3-c]pyridine-5-carbonyl)-1H-indol-1-yl)-2-methylcyclopropyl)-1,2,4-oxadiazol-5 (4H)-one]",> 10000
11,"Cc1cc(-n2nc3c(c2-n2ccn(-c4ccc5c(cnn5C)c4F)c2=O)[C@@H]2CC[C@H](C3)N2C(=O)c2cc3cc([C@H]4CCOC(C)(C)C4)cnc3n2[C@@]2(c3noc(=O)[nH]3)C[C@@H]2C)cc(C)c1F [Compound 313, 3-((1S,2S)-1-(5-((S)-2,2-dimethyltetrahydro-2H-pyran-4-yl)-2-((4S,7R)-3-(3-(4-fluoro-1-methyl-1H-indazol-5-yl)-2-oxo-2,3-dihydro-1H-imidazol-1-yl)-2-(4-fluoro-3,5-dimethylphenyl)-2,4,5,6,7,8-hexahydro-4,7-epiminocyclohepta [c]pyrazole-9-carbonyl)-1H-pyrrolo[2,3-b]pyridin-1-yl)-2-methylcyclopropyl)-1,2,4-oxadiazol-5 (4H)-one]",18.7
12,"Cc1cc(-n2nc3c(c2-n2ccn(-c4ccc5c(cnn5C)c4F)c2=O)[C@@H]2CC[C@H](C3)N2C(=O)c2cc3cc([C@H]4CCOC(C)(C)C4)ccc3n2[C@@]2(C(=O)NS(=O)(=O)C3CC3)C[C@@H]2C)cc(C)c1F [Compound 204, cis-(1S,2S)-N-cyclopropylsulfonyl-1-[5-[(4S)-2,2-dimethyltetrahydropyran-4-yl]-2-[(1S,8R)-4-(4-fluoro-3,5-dimethyl-phenyl)-3-[3-(4-fluoro-1-methyl-indazol-5-yl)-2-oxo-imidazol-1-yl]-4,5,11-triazatricyclo[6.2.1.02,6]undeca-2,5-diene-11-carbonyl]indol-1-yl]-2-methyl-cyclopropanecarboxamide]",> 10000
13,"Cc1cc(-n2nc3c(c2-n2ccn(-c4ccc5cnncc5c4F)c2=O)[C@@H]2CC[C@H](C3)N2C(=O)c2cc3cc([C@H]4CCOC5(CC5)C4)ccc3n2[C@@]2(c3noc(=O)[nH]3)C[C@@H]2C)cc(C)c1F [Compound 437, 3-((1S,2S)-1-(2-((4S,7R)-2-(4-fluoro-3,5-dimethylphenyl)-3-(3-(5-fluorophthalazin-6-yl)-2-oxo-2,3-dihydro-1H-imidazol-1-yl)-2,4,5,6,7,8-hexahydro-4,7-epiminocyclohepta [c]pyrazole-9-carbonyl)-5-((S)-4-oxaspiro[2.5]octan-7-yl)-1H-indol-1-yl)-2-methylcyclopropyl)-1,2,4-oxadiazol-5 (4H)-one]",55
14,"Cc1cc(-n2nc3c(c2-n2ccn(-c4ccc5c(cnn5C)c4F)c2=O)[C@@H]2CCC[C@H](C3)N2C(=O)c2c(C)c3cc([C@H]4CCOC(C)(C)C4)ccc3n2[C@@]2(c3noc(=O)[nH]3)C[C@@H]2C)cc(C)c1F [Compound 537, 3-[(1S,2S)-1-[5-[(4S)-2,2-dimethyltetrahydropyran-4-yl]-2-[(1S,8R)-4-(4-fluoro-3,5-dimethyl-phenyl)-3-[3-(4-fluoro-1-methyl-indazol-5-yl)-2-oxo-imidazol-1-yl]-4,5,12-triazatricyclo[6.3.1.02,6]dodeca-2,5-diene-12-carbonyl]-3-methyl-indol-1-yl]-2-methyl-cyclopropyl]-4H-1,2,4-oxadiazol-5-one]",1340

# Same assay, conditions: text to Table 1d, bridge atoms configured out of the plane or toward the reader
row,Structure (SMILES),potency
1,"Cc1cc(-n2nc3c(c2-n2ccn(-c4ccc5c(cnn5C)c4F)c2=O)[C@H]2CC[C@@H]([C@H]3F)N2C(=O)c2cc3cc([C@H]4CCOC(C)(C)C4)ccc3n2[C@@]2(c3noc(=O)[nH]3)C[C@@H]2C)cc(C)c1F [Compound 514, 3-[(1S,2S)-1-[5-[(4S)-2,2-dimethyltetrahydropyran-4-yl]-2-[(1R,7R,8S)-7-fluoro-4-(4-fluoro-3,5-dimethyl-phenyl)-3-[3-(4-fluoro-1-methyl-indazol-5-yl)-2-oxo-imidazol-1-yl]-4,5,11-triazatricyclo[6.2.1.02,6]undeca-2,5-diene-11-carbonyl]indol-1-yl]-2-methyl-cyclopropyl]-4H-1,2,4-oxadiazol-5-one]",little or no potency
